Assay results reported in patent US11214594B2, “Antimicrobial peptide having synergistic antibacterial effect with antibiotics on multidrug resistant bacteria, and use thereof” (priority 2016, dated 2022).
Where a SMILES comes first, the peptide text is derived from it. [ ]: non-standard residue; d: D form.

Tests used:
[1] = system: multi-drug resistant bacteria; assay: MIC, summary statements for multi-drug resistant bacteria; format: cell-based
Method in brief: (§1)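 Peptides were serially diluted twofold in Mueller-Hinton medium and combined 1:1 with bacterial suspensions prepared at 2×10^6 CFU. Readout was the minimal inhibitory concentration, i.e. the lowest concentration with no growth.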

MDREC 1238 = format: cell-based, Escherichia coli
Method in brief: as §1

MDRAB 12036 = format: cell-based, Acinetobacter baumannii
Method in brief: as §1

MDREC 1229 = assay: MIC of antibiotic during combined treatment with antimicrobial peptide; format: cell-based, Escherichia coli
Method in brief: (§2)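 Broth microdilution in MH medium; strains were diluted to 2×10^6 CFU per ml before plating. Peptide was serially diluted stepwise at 2:1 starting from its MIC, and MH-diluted antibiotic was then added to determine MIC. The reversed arrangement was also tested.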

MRSA 3114 = format: cell-based, Staphylococcus aureus; conditions: 3114
Method in brief: as §1

MRSA 3126 = format: cell-based, Staphylococcus aureus; conditions: 3126
Method in brief: as §1

MDRPA 2003 = format: cell-based, Pseudomonas aeruginosa
Method in brief: as §1

MDRPA 2002 = format: cell-based, Pseudomonas aeruginosa
Method in brief: as §1

MDRAB 12035 = assay: MIC of antibiotic during combined treatment with antimicrobial peptide; format: cell-based, Acinetobacter baumannii
Method in brief: as §2

S. typhimurium = assay: microbe, parasite or virus in culture; format: cell-based, Salmonella typhimurium
Method in brief: as §1

MDRST 8007 = assay: Minimal inhibitory concentration (MIC), single agent; format: cell-based, Salmonella typhimurium; conditions: agent alone
Method in brief: as §1

[2] = peptide treatment concentration 1 μg/ml
[3] = peptide treatment concentration 2 μg/ml
[4] = peptide treatment concentration 4 μg/ml
[5] = peptide treatment concentration 6 μg/ml
[6] = peptide treatment concentration 8 μg/ml
[7] = peptide treatment concentration 16 μg/ml
[8] = peptide treatment concentration 32 μg/ml
[9] = peptide treatment concentration 64 μg/ml

CC[C@H](C)[C@H](NC(=O)[C@H](CCCCN)NC(=O)[C@H](Cc1c[nH]c2ccccc12)NC(=O)[C@@H](N)CCCNC(=N)N)C(=O)N[C@@H](Cc1ccccc1)C(=O)N[C@@H](CCCCN)C(=O)N[C@@H](CCCCN)C(=O)N[C@H](C(=O)N[C@H](CC(C)C)C(=O)N[C@@H](CCCCN)C(=O)N[C@@H](CC(C)C)C(=O)N[C@@H](CC(C)C)C(=O)N[C@@H](Cc1c[nH]cn1)C(=O)N[C@@H](CCC(=O)O)C(=O)N[C@@H](Cc1ccccc1)C(=O)N[C@@H](CCCCN)C(=O)N[C@@H](CCCCN)C(=O)N[C@@H](Cc1ccccc1)C(N)=O)[C@@H](C)CC [PapMA-23, RWK IFK KIl KLL HEF KKF-NH2] (H-RWKIFKKI[dL]KLLHEFKKF-NH2; N-terminus assumed)
64 µg/mL: Antibiotic MIC, Erythromycin (MDREC 1229; [3]) | Antibiotic MIC, Linezolid (MDREC 1229; [4]) | Minimal inhibitory concentration MIC (MDRPA 2003) | Minimal inhibitory concentration MIC (MDRPA 2002) | Linezolid MIC during combined treatment with peptide (MDRAB 12035; [4]) | Minimal inhibitory concentration MIC (MDRST 8007)
twice to four times higher: Antibacterial activity relative to PapMA-1 [1]
16 µg/mL: Antibiotic MIC, Linezolid (MDREC 1229; [7]) | Antibiotic MIC, Vancomycin (MDREC 1229; [7]) | Erythromycin MIC during combined treatment with peptide (MDRAB 12035; [4]) | Linezolid MIC during combined treatment with peptide (MDRAB 12035; [6]) | Vancomycin MIC during combined treatment with peptide (MDRAB 12035; [6])
>128 µg/mL: Antibiotic MIC, Linezolid (MDREC 1229; [2]) | Antibiotic MIC, Vancomycin (MDREC 1229; [2]) | Antibiotic MIC, Vancomycin (MDREC 1229; [3]) | Antibiotic MIC, Vancomycin (MDREC 1229; [4]) | Minimal inhibitory concentration MIC (MRSA 3114) | Minimal inhibitory concentration MIC (MRSA 3126) | Linezolid MIC during combined treatment with peptide (MDRAB 12035; [2]) | Vancomycin MIC during combined treatment with peptide (MDRAB 12035; [2]) | Linezolid MIC during combined treatment with peptide (MDRAB 12035; [3]) | Vancomycin MIC during combined treatment with peptide (MDRAB 12035; [3])
0.25 µg/mL: Erythromycin MIC during combined treatment with peptide (MDRAB 12035; [7])
128 µg/mL: Antibiotic MIC, Erythromycin (MDREC 1229; [2]) | Antibiotic MIC, Linezolid (MDREC 1229; [3]) | Antibiotic MIC, Vancomycin (MDREC 1229; [5]) | Vancomycin MIC during combined treatment with peptide (MDRAB 12035; [4])
4 µg/mL: Antibiotic MIC, Erythromycin (MDREC 1229; [6]) | Erythromycin MIC during combined treatment with peptide (MDRAB 12035; [5]) | Linezolid MIC during combined treatment with peptide (MDRAB 12035; [7])
32 µg/mL: Minimal inhibitory concentration MIC (MDREC 1238) | Minimal inhibitory concentration MIC (MDRAB 12036) | Antibiotic MIC, Erythromycin (MDREC 1229; [4]) | Antibiotic MIC, Linezolid (MDREC 1229; [5]) | Antibiotic MIC, Linezolid (MDREC 1229; [6]) | Antibiotic MIC, Vancomycin (MDREC 1229; [6]) | Erythromycin MIC during combined treatment with peptide (MDRAB 12035; [2]) | Erythromycin MIC during combined treatment with peptide (MDRAB 12035; [3]) | Linezolid MIC during combined treatment with peptide (MDRAB 12035; [5]) | Vancomycin MIC during combined treatment with peptide (MDRAB 12035; [5]) | Minimal inhibitory concentration MIC (S. typhimurium)
1 µg/mL: Antibiotic MIC, Erythromycin (MDREC 1229; [7]) | Erythromycin MIC during combined treatment with peptide (MDRAB 12035; [6])
8 µg/mL: Antibiotic MIC, Erythromycin (MDREC 1229; [5]) | Vancomycin MIC during combined treatment with peptide (MDRAB 12035; [7])
0 µg/mL: Antibiotic MIC, Erythromycin (MDREC 1229; [8]) | Antibiotic MIC, Linezolid (MDREC 1229; [8]) | Antibiotic MIC, Vancomycin (MDREC 1229; [8]) | Antibiotic MIC, Erythromycin (MDREC 1229; [9]) | Antibiotic MIC, Linezolid (MDREC 1229; [9]) | Antibiotic MIC, Vancomycin (MDREC 1229; [9]) | Erythromycin MIC during combined treatment with peptide (MDRAB 12035; [8]) | Linezolid MIC during combined treatment with peptide (MDRAB 12035; [8]) | Vancomycin MIC during combined treatment with peptide (MDRAB 12035; [8]) | Erythromycin MIC during combined treatment with peptide (MDRAB 12035; [9]) | Linezolid MIC during combined treatment with peptide (MDRAB 12035; [9]) | Vancomycin MIC during combined treatment with peptide (MDRAB 12035; [9])

CC[C@H](C)[C@H](NC(=O)[C@H](CCCCN)NC(=O)[C@H](Cc1c[nH]c2ccccc12)NC(=O)[C@@H](N)CCCNC(=N)N)C(=O)N[C@@H](Cc1ccccc1)C(=O)N[C@@H](CCCCN)C(=O)N[C@@H](CCCCN)C(=O)N[C@H](C(=O)N[C@H](CC(C)C)C(=O)N[C@@H](CCCCN)C(=O)N[C@@H](CC(C)C)C(=O)N[C@@H](CC(C)C)C(=O)N[C@@H](Cc1c[nH]cn1)C(=O)N[C@@H](CCC(=O)O)C(=O)N[C@@H](C)C(=O)N[C@@H](CCCCN)C(=O)N[C@@H](CCCCN)C(=O)N[C@@H](Cc1c[nH]c2ccccc12)C(N)=O)[C@@H](C)CC [PapMA-24, RWK IFK KIl KLL HEA KKW-NH2] (H-RWKIFKKI[dL]KLLHEAKKW-NH2; N-terminus assumed)
>128 µg/mL: Antibiotic MIC, Linezolid (MDREC 1229; [2]) | Antibiotic MIC, Vancomycin (MDREC 1229; [2]) | Antibiotic MIC, Vancomycin (MDREC 1229; [3]) | Antibiotic MIC, Vancomycin (MDREC 1229; [4]) | Minimal inhibitory concentration MIC (MRSA 3114) | Minimal inhibitory concentration MIC (MRSA 3126) | Linezolid MIC during combined treatment with peptide (MDRAB 12035; [2]) | Vancomycin MIC during combined treatment with peptide (MDRAB 12035; [2]) | Linezolid MIC during combined treatment with peptide (MDRAB 12035; [3]) | Vancomycin MIC during combined treatment with peptide (MDRAB 12035; [3])
2 µg/mL: Antibiotic MIC, Erythromycin (MDREC 1229; [6]) | Erythromycin MIC during combined treatment with peptide (MDRAB 12035; [5])
16 µg/mL: Antibiotic MIC, Vancomycin (MDREC 1229; [7]) | Erythromycin MIC during combined treatment with peptide (MDRAB 12035; [4]) | Linezolid MIC during combined treatment with peptide (MDRAB 12035; [5]) | Vancomycin MIC during combined treatment with peptide (MDRAB 12035; [6])
4 µg/mL: Linezolid MIC during combined treatment with peptide (MDRAB 12035; [7])
32 µg/mL: Minimal inhibitory concentration MIC (MDREC 1238) | Minimal inhibitory concentration MIC (MDRAB 12036) | Antibiotic MIC, Erythromycin (MDREC 1229; [4]) | Antibiotic MIC, Linezolid (MDREC 1229; [6]) | Antibiotic MIC, Vancomycin (MDREC 1229; [6]) | Erythromycin MIC during combined treatment with peptide (MDRAB 12035; [2]) | Erythromycin MIC during combined treatment with peptide (MDRAB 12035; [3]) | Vancomycin MIC during combined treatment with peptide (MDRAB 12035; [5]) | Minimal inhibitory concentration MIC (S. typhimurium) | Minimal inhibitory concentration MIC (MDRST 8007)
0 µg/mL: Antibiotic MIC, Erythromycin (MDREC 1229; [8]) | Antibiotic MIC, Linezolid (MDREC 1229; [8]) | Antibiotic MIC, Vancomycin (MDREC 1229; [8]) | Antibiotic MIC, Erythromycin (MDREC 1229; [9]) | Antibiotic MIC, Linezolid (MDREC 1229; [9]) | Antibiotic MIC, Vancomycin (MDREC 1229; [9]) | Erythromycin MIC during combined treatment with peptide (MDRAB 12035; [8]) | Linezolid MIC during combined treatment with peptide (MDRAB 12035; [8]) | Vancomycin MIC during combined treatment with peptide (MDRAB 12035; [8]) | Erythromycin MIC during combined treatment with peptide (MDRAB 12035; [9]) | Linezolid MIC during combined treatment with peptide (MDRAB 12035; [9]) | Vancomycin MIC during combined treatment with peptide (MDRAB 12035; [9])
64 µg/mL: Antibiotic MIC, Erythromycin (MDREC 1229; [3]) | Antibiotic MIC, Linezolid (MDREC 1229; [4]) | Antibiotic MIC, Linezolid (MDREC 1229; [5]) | Antibiotic MIC, Vancomycin (MDREC 1229; [5]) | Minimal inhibitory concentration MIC (MDRPA 2003) | Minimal inhibitory concentration MIC (MDRPA 2002) | Linezolid MIC during combined treatment with peptide (MDRAB 12035; [4]) | Vancomycin MIC during combined treatment with peptide (MDRAB 12035; [4])
8 µg/mL: Antibiotic MIC, Erythromycin (MDREC 1229; [5]) | Antibiotic MIC, Linezolid (MDREC 1229; [7]) | Linezolid MIC during combined treatment with peptide (MDRAB 12035; [6]) | Vancomycin MIC during combined treatment with peptide (MDRAB 12035; [7])
128 µg/mL: Antibiotic MIC, Erythromycin (MDREC 1229; [2]) | Antibiotic MIC, Linezolid (MDREC 1229; [3])
1 µg/mL: Antibiotic MIC, Erythromycin (MDREC 1229; [7]) | Erythromycin MIC during combined treatment with peptide (MDRAB 12035; [6])
twice to four times higher: Antibacterial activity relative to PapMA-1 [1]
0.25 µg/mL: Erythromycin MIC during combined treatment with peptide (MDRAB 12035; [7])
